From patent US20230331601A1, “METHOD FOR WATER PURIFICATION AND SANITIZATION” (YISSUM RESEARCH DEVELOPMENT COMPANY OF THE HEBREW …, priority 2020, published 2023) come the findings set out here.

What all share (type): physicochemical
The nature of data set [1]: Degradation of carbamazepine by sodium hydroxide and hydrogen peroxide with phase transfer catalyst and added oxygen (LC-MS). Here is the method: A 50 ml round bottom flask equipped with a magnetic stirrer was charged with 10 ml of water polluted with 1-100 ppm of carbamazepine (concentrations of 1, 10 and 100 ppm were examined). Sodium hydroxide (0.5 g) was rapidly added followed by addition of 0.02 ml of a phase transfer catalyst (Aliquat 336) Next, 1 ml of aqueous hydrogen peroxide (30% solution) was introduced over 5 minutes. After the addition of hydrogen peroxide, the mixture was held under stirring and pure oxygen was bubbled to the system at a flow rate of 0.5 ml/min over 10 minutes. For each experiment, at the end of the process the final reaction mixture was extracted with 5 ml of Acetone: hexane solution (1:1) and carbamazepine remnant concentration was measured by LC-MS, QTOF 6520, manufactured by Agilent.

The nature of data set [2]: Degradation of xylene by sodium hydroxide and hydrogen peroxide with Aliquat 336, with and without added oxygen (GC-FID). As for the experimental part:
Experiment A: In the reference experiment, a 50 ml round bottom flask equipped with a magnetic stirrer was charged with 10 ml of water polluted with 100 ppm of xylene. Sodium hydroxide (0.5 g) was rapidly added followed by addition of 0.02 ml of a phase transfer catalyst (Aliquat 336) Next, 1 ml of aqueous hydrogen peroxide (30% solution) was introduced over 5 minutes. After the addition of hydrogen peroxide solution has been completed, the mixture was held under stirring for ten minutes.
Experiment B: To assess the effect of added oxygen, the procedure set forth above was repeated but after the addition of hydrogen peroxide, pure oxygen was bubbled to the system at a flow rate of 1 ml/min over 30 minutes. Upon completion of O2 addition, the mixture was stirred for ten minutes.
For each experiment, samples (0.5 ml) were taken from the reaction mixture at intervals of one minute during the ten minutes hold time and the concentration of remnant xylene was measured by GC-FID. The final reaction mixture was extracted with dichloromethane (10 ml) and analyzed by GC-FID as previously described.

The nature of data set [3]: Decolorization of Rhodamine B solution monitored with UV-Vis spectroscopy. The settings on record: 125 ppm RhB solution (Example 2 conditions). The text has this: UV-Vis spectroscopy: 1800 UV spectrophotometer, Shimadzu, Japan.
Rhodamine B (RhB) is a water-soluble chemical dye which is commonly used as a benchmark to assess the potency of oxidants to decompose organic pollutants in aqueous solution and measure the rate of degradation. De-colorization of RhB solution, that is, the disappearance of the characteristic intense pink color, is readily visible as the decomposition of the dye advances under the action of the tested oxidant and the oxidation reaction can be monitored with UV-Vis spectroscopy. […] Decolorization of 1000 ppm and 125 ppm RhB solutions was completed within eleven minutes and two minutes, respectively, i.e., well before the end of the experiments.

As for `NC(=O)N1c2ccccc2C=Cc2ccccc21` [carbamazepine], the conversion rate in data set [1] (1 ppm carbamazepine in water) is on record as ~ 70%. The conversion in data set [1] (10 ppm carbamazepine in water) and in data set [1] (100 ppm carbamazepine in water) was greater than 90% in each case. In data set [1] (low pollution level of 1 to 10 ppm), the removal rates is 70 to 90%.
With Xylene, the “Hold time to reach complete oxidation of the pollutant” value in data set [2] (Experiment A: 100 ppm xylene, absence of added oxygen) is listed as “ten”; in data set [2] (Experiment B: 100 ppm xylene, with added oxygen 1 ml/min over 30 minutes), “about six”.
Consider `CCN(CC)c1ccc2c(-c3ccccc3C(=O)O)c3ccc(=[N+](CC)CC)cc-3oc2c1.[Cl-]` [Rhodamine B], for which the “Time to complete decolorization” value in data set [3] is “two”.
